From patent US20100234238A1, “METHOD FOR PROFILING KINASE INHIBITORS” (Janssen Pharmaceutica N V, priority 2006, published 2010)

System: tyrosine kinase activity in lysates prepared from cell lines
Assay: PAMCHIP96 tyrosine peptide array profiling of lysates of 27 cell lines in absence or presence of MTKI
Assay type: biochemical
Conditions: 5 μM
Excerpt: PAMGENE technology using the tyrosine peptide PAMCHIP96 allows the kinetic detection of the phosphorylation of 144 tyrosine peptides spotted onto a 3-dimensional porous well of a 96-well plate (www.pamgene.com). This technology can be used to measure the activity of purified kinases and the effects of kinase inhibitors thereon. Phosphotyrosine peptides are detected using a mix of fluorescently labeled anti-phosphotyrosine antibodies. Phosphorylation of peptides can be followed in real time due to the possibility of removing the reaction mix for a few seconds during the assay by a pumping mechanism to allow CCD camera detection of phosphopeptides bound to the fluorescent antibody. These consecutive datapoints (quantified spot images) generate a kinetic curve for each individual peptide, and allow for the calculation of initial velocities and endpoints associated with each individual peptide.
Cells cultured in appropriate medium in T175 flasks, treated with compound if necessary, are harvested at 70-90% confluency.
Media is removed, cells are washed with 10 ml ice cold PBS containing 0.1 mM NaVO4 and lysed in 1 ml of M-PER buffer (PIERCE) containing phosphatase and protease inhibitors (HALT, PIERCE). Cells are collected by scraping, and centrifuged for 10 minutes at 12 000×g. Supernatant lysates are filtered through a 0.2 micrometer filter (Anotop 0.2 μm anopore filter; Whatmann). Lysates are flash frozen in liquid nitrogen and stored at −80C.
Just prior to the PAMCHIP experiment, total protein content is quantitated in the lysates and lysates are diluted to 1 mg/ml in a total volume of 200 μl, with M-PER phosphatase and protease inhibitors (HALT, PIERCE). 10 μg of total lysate (corresponding to 10 μl) will be used per well on the PAMCHIP96.
To all 200 μl lysates 10 units of benzonase (Novagen) is added and lysates are further incubated for 30 min on ice and next centrifuged for 10 minutes at 12 000×g. The supernatant is then 1:1 diluted with compound or DMSO diluted to the appropriate concentration in water, and lysates are further incubated exactly 60 min on ice. Meanwhile, a PAMCHIP96 tyrosine peptide chip (PAMGENE) is blocked with 2% BSA (filtered through a 0.2 μm anopore filter; Whatmann) using the standard setting of a PAMSTATION96 (PAMGENE).
The composition of the kinase buffer is as follows: 1×ABL buffer (NEB), 0.5 mg/ml BSA (from 10 mg/ml NEB stock), 100 μM ATP (dissolved and diluted in 1×ABL buffer), 5 μg/ml PY20-FITC (ExAlpha Biologicals, azide-free preparation). A twofold concentrated kinase buffer is prepared chilled on ice, DMSO or compound is added as appropriate, and the solution is added 1:1 to the (compound treated) ice cold lysates, and immediately applied to a tyrosine peptide PAMCHIP96. The assay is run on a PAMSTATION96 according to standard procedures: after loading of the plate, solution is pumped once onto the wells, a first exposure is read (150 mSec) and then a kinetic reading program (reading every 5 min for 150 mSec) is run for 60 min. Lysates are run in 6 technical replicates for each condition; replicates are always applied horizontally next to each other to avoid vertical strip effects of the chip.
The data (spot images) are further quantified and linked to the peptide identities using EVOLVE PAMGRID software (PAMGENE). The quantified data are then fit to a curve using CurveFitHT software (PAMGENE) using the Vinip2 curve fitting algorithm, applied on the first 30 min of the assay; the initial velocity is derived at the first kinetic time point read. All subsequent data analyses were done on initial velocities (Vini) using the software packages Omniviz and R (Ihaka, R. and Gentlemen, R. (1996) R: a language for data analysis and graphics. J. Comput. Graph. Stat., 5, 299-314).
After replacing the Vini's lower than 0.1 by 0.1, all Vini's were log 2-transformed to approach normality.

## COc1cc2ncnc3c2cc1OCCCCCN(C)Cc1ccc(Br)cc1N3 [MTKI, 4,6-ethanediylidenepyrimido[4,5-b][6,1,12]benzoxadiazacyclopentadecine, 17-bromo-8,9,10,11,12,13,14,19-octahydro-20-methoxy-13-methyl-]
H3255 lysate, PECA1_706_718_Y713
  ratio of initial velocity of peptide phosphorylation: 0.68
H3255 lysate, PGFRB_768_780_Y771/Y775/Y778
  ratio of initial velocity of peptide phosphorylation: 0.12
H3255 lysate, PLCG1_764_776_Y771
  ratio of initial velocity of peptide phosphorylation: 0.97
H3255 lysate, PRRX2_202_214_Y214
  ratio of initial velocity of peptide phosphorylation: 0.67
H3255 lysate, RASA1_453_465_Y460
  ratio of initial velocity of peptide phosphorylation: 0.65
H3255 lysate, STAT2_683_695_Y690
  ratio of initial velocity of peptide phosphorylation: 0.72
H3255 lysate, SYN1_2_14_S9
  ratio of initial velocity of peptide phosphorylation: 0.70
H3255 lysate, TYRO3_679_691_Y686
  ratio of initial velocity of peptide phosphorylation: 0.47
NCI-N87 lysate, CDK7_157_169_S164
  ratio of initial velocity of peptide phosphorylation: 0.82
NCI-N87 lysate, CREB1_122_134_Y134/S133
  ratio of initial velocity of peptide phosphorylation: 0.82
NCI-N87 lysate, DDR2_733_745_Y740
  ratio of initial velocity of peptide phosphorylation: 0.95
NCI-N87 lysate, ENOG_37_49_Y43
  ratio of initial velocity of peptide phosphorylation: 0.91
NCI-N87 lysate, MK10_216_228_T221/Y223
  ratio of initial velocity of peptide phosphorylation: 0.73
NCI-N87 lysate, NCF1_313_325_S315/S320
  ratio of initial velocity of peptide phosphorylation: 0.89
NCI-N87 lysate, NPT2_501_513_T508
  ratio of initial velocity of peptide phosphorylation: 0.88
NCI-N87 lysate, PECA1_706_718_Y713
  ratio of initial velocity of peptide phosphorylation: 0.82
NCI-N87 lysate, PGFRB_768_780_Y771/Y775/Y778
  ratio of initial velocity of peptide phosphorylation: 0.32
NCI-N87 lysate, PLCG1_764_776_Y771
  ratio of initial velocity of peptide phosphorylation: 0.78
NCI-N87 lysate, PRRX2_202_214_Y214
  ratio of initial velocity of peptide phosphorylation: 0.82
NCI-N87 lysate, RASA1_453_465_Y460
  ratio of initial velocity of peptide phosphorylation: 0.59
NCI-N87 lysate, STAT2_683_695_Y690
  ratio of initial velocity of peptide phosphorylation: 0.83
NCI-N87 lysate, SYN1_2_14_S9
  ratio of initial velocity of peptide phosphorylation: 0.75
NCI-N87 lysate, TYRO3_679_691_Y686
  ratio of initial velocity of peptide phosphorylation: 0.85
SKBR3 lysate, CDK7_157_169_S164
  ratio of initial velocity of peptide phosphorylation: 0.97
SKBR3 lysate, CREB1_122_134_Y134/S133
  ratio of initial velocity of peptide phosphorylation: 0.99
SKBR3 lysate, DDR2_733_745_Y740
  ratio of initial velocity of peptide phosphorylation: 0.93
SKBR3 lysate, MK10_216_228_T221/Y223
  ratio of initial velocity of peptide phosphorylation: 0.68
SKBR3 lysate, NCF1_313_325_S315/S320
  ratio of initial velocity of peptide phosphorylation: 0.94
SKBR3 lysate, NPT2_501_513_T508
  ratio of initial velocity of peptide phosphorylation: 0.77
SKBR3 lysate, PECA1_706_718_Y713
  ratio of initial velocity of peptide phosphorylation: 0.68
SKBR3 lysate, PLCG1_764_776_Y771
  ratio of initial velocity of peptide phosphorylation: 0.75
SKBR3 lysate, PRRX2_202_214_Y214
  ratio of initial velocity of peptide phosphorylation: 0.75
SKBR3 lysate, RASA1_453_465_Y460
  ratio of initial velocity of peptide phosphorylation: 0.88
SKBR3 lysate, STAT2_683_695_Y690
  ratio of initial velocity of peptide phosphorylation: 0.81
SKBR3 lysate, SYN1_2_14_S9
  ratio of initial velocity of peptide phosphorylation: 1.03
SKBR3 lysate, TYRO3_679_691_Y686
  ratio of initial velocity of peptide phosphorylation: 0.90
SNU484 lysate, CDK7_157_169_S164
  ratio of initial velocity of peptide phosphorylation: 0.67
SNU484 lysate, CREB1_122_134_Y134/S133
  ratio of initial velocity of peptide phosphorylation: 0.70
SNU484 lysate, DDR2_733_745_Y740
  ratio of initial velocity of peptide phosphorylation: 0.75
SNU484 lysate, ENOG_37_49_Y43
  ratio of initial velocity of peptide phosphorylation: 0.68
SNU484 lysate, MK10_216_228_T221/Y223
  ratio of initial velocity of peptide phosphorylation: 0.72
SNU484 lysate, NCF1_313_325_S315/S320
  ratio of initial velocity of peptide phosphorylation: 0.80
SNU484 lysate, NPT2_501_513_T508
  ratio of initial velocity of peptide phosphorylation: 0.85
SNU484 lysate, PECA1_706_718_Y713
  ratio of initial velocity of peptide phosphorylation: 0.64
SNU484 lysate, PLCG1_764_776_Y771
  ratio of initial velocity of peptide phosphorylation: 0.70
SNU484 lysate, PRRX2_202_214_Y214
  ratio of initial velocity of peptide phosphorylation: 0.67
SNU484 lysate, RASA1_453_465_Y460
  ratio of initial velocity of peptide phosphorylation: 0.58
SNU484 lysate, STAT2_683_695_Y690
  ratio of initial velocity of peptide phosphorylation: 0.73
SNU484 lysate, SYN1_2_14_S9
  ratio of initial velocity of peptide phosphorylation: 0.67
SNU484 lysate, TYRO3_679_691_Y686
  ratio of initial velocity of peptide phosphorylation: 0.85
